According to PubChem BioAssay AID1963869 (Molecular Pharmacology Branch, DTP, NCI, 2024):
Where “and” joins values, the source holds several entries; their conditions need not be identical. Equal values may be shown once.

Tested on: KRAS patient-derived spheroids with HUVEC/MSC, viability
Assay: Anticancer human tumor 323965-272-R-J2-PDC patient-derived pancreatic carcinoma cell line growth inhibition [KRAS2]
Conditions: for viability, T/C: stronger effect = lower value
Procedure, shortened: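 Combination screen of spheroid viability in tumor-cell co-cultures with endothelial (HUVEC) and mesenchymal stem cell stroma. Each agent was tested in half-log dilutions, topping at clinical Cmax or at 10 microM without a known Cmax.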

[1] = curve of first compound, second compound 0.0316 µM
[2] = curve of first compound, second compound 0.1 µM
[3] = curve of first compound, second compound 0.316 µM
[4] = curve of first compound, second compound 1 µM
[5] = curve of first compound, second compound 3.16 µM
[6] = second compound 0.0316 µM, first compound 0.0316 µM
[7] = second compound 0.0316 µM, first compound 0.1 µM
[8] = second compound 0.0316 µM, first compound 0.316 µM
[9] = second compound 0.0316 µM, first compound 1 µM
[10] = second compound 0.0316 µM, first compound 3.16 µM
[11] = second compound 0.0316 µM, first compound 10 µM
[12] = second compound 0.1 µM, first compound 0.0316 µM
[13] = second compound 0.1 µM, first compound 0.1 µM
[14] = second compound 0.1 µM, first compound 0.316 µM
[15] = second compound 0.1 µM, first compound 1 µM
[16] = second compound 0.1 µM, first compound 3.16 µM
[17] = second compound 0.1 µM, first compound 10 µM
[18] = second compound 0.316 µM, first compound 0.0316 µM
[19] = second compound 0.316 µM, first compound 0.1 µM
[20] = second compound 0.316 µM, first compound 0.316 µM
[21] = second compound 0.316 µM, first compound 1 µM
[22] = second compound 0.316 µM, first compound 3.16 µM
[23] = second compound 0.316 µM, first compound 10 µM
[24] = second compound 1 µM, first compound 0.0316 µM
[25] = second compound 1 µM, first compound 0.1 µM
[26] = second compound 1 µM, first compound 0.316 µM
[27] = second compound 1 µM, first compound 1 µM
[28] = second compound 1 µM, first compound 3.16 µM
[29] = second compound 1 µM, first compound 10 µM
[30] = second compound 3.16 µM, first compound 0.0316 µM
[31] = second compound 3.16 µM, first compound 0.1 µM
[32] = second compound 3.16 µM, first compound 0.316 µM
[33] = second compound 3.16 µM, first compound 1 µM
[34] = second compound 3.16 µM, first compound 3.16 µM
[35] = second compound 3.16 µM, first compound 10 µM
[36] = curve of first compound, second compound 10 µM
[37] = second compound 10 µM, first compound 0.0316 µM
[38] = second compound 10 µM, first compound 0.1 µM
[39] = second compound 10 µM, first compound 0.316 µM
[40] = second compound 10 µM, first compound 1 µM
[41] = second compound 10 µM, first compound 3.16 µM
[42] = second compound 10 µM, first compound 10 µM
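Also: spheroids exposed to agents for 7 days.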
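For viability, T/C in this document: 100% = DMSO vehicle control viability.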

Row | SMILES | IC50 [2] [nM] | IC50 [3] [nM] | IC50 [4] [nM] | IC50 [5] [nM] | viability, T/C [12] [%] | viability, T/C [13] [%] | viability, T/C [14] [%] | viability, T/C [15] [%] | viability, T/C [16] [%] | viability, T/C [18] [%] | viability, T/C [19] [%] | viability, T/C [20] [%] | viability, T/C [21] [%] | viability, T/C [22] [%] | viability, T/C [24] [%] | viability, T/C [25] [%] | viability, T/C [26] [%] | viability, T/C [27] [%] | viability, T/C [28] [%] | viability, T/C [30] [%] | other results
1 | CC1OCC2(CCN(c3cnc(Sc4ccnc(N)c4Cl)c(N)n3)CC2)C1N (stereo unspecified) + C=CC(=O)N1CCN(c2nc(OCC3CCCN3C)nc3c2CCN(c2cccc4cccc(C)c24)C3)CC1CC#N | < 31.6 | < 31.6 | < 31.6 | < 31.6 | 38.4 | 31.9 | 21.5 | 15.1 | 10.7 | 41 | 30.5 | 18.4 | 17 | 10.8 | 35.2 | 28.9 | 15.7 | 13.5 | 11.6 | 1.93 | IC50 [1]: 36.9 nM; viability, T/C [6]: 51.4%; viability, T/C [7]: 39.2%; viability, T/C [8]: 24.4%; viability, T/C [9]: 19.3%; viability, T/C [10]: 12.3%; viability, T/C [11]: 9.85%; viability, T/C [17]: 10.8%; viability, T/C [23]: 9.7%; viability, T/C [29]: 10%; viability, T/C [31]: 1.12%; viability, T/C [32]: 0.53%; viability, T/C [33]: 0.65%; viability, T/C [34]: 1.07%; viability, T/C [35]: 1.33%
2 | CCNC(=O)CC1N=C(c2ccc(Cl)cc2)c2cc(OC)ccc2-n2c(C)nnc21 (stereo unspecified) + CC1OCC2(CCN(c3cnc(Sc4ccnc(N)c4Cl)c(N)n3)CC2)C1N | 244 | 146 | < 31.6 | < 31.6 | 74.6 | 63.5 | 44.9 | 36.3 | 28.6 | 63.3 | 57.8 | 34.4 | 28 | 25.2 | 45.6 | 35.5 | 27.2 | 22.2 | 11.9 | 16.2 | IC50 [36]: < 31.6 nM; viability, T/C [17]: 27.4%; viability, T/C [23]: 22.6%; viability, T/C [29]: 7.8%; viability, T/C [31]: 20.8%; viability, T/C [32]: 14.3%; viability, T/C [33]: 13.1%; viability, T/C [34]: 6.89%; viability, T/C [35]: 4.84%; viability, T/C [37]: 16.6%; viability, T/C [38]: 16.3%; viability, T/C [39]: 14.9%; viability, T/C [40]: 8.18%; viability, T/C [41]: 6.22%; viability, T/C [42]: 3.88%
3 | O=C(c1cc(Cc2n[nH]c(=O)c3ccccc23)ccc1F)N1CCN(C(=O)C2CC2)CC1 + C=CC(=O)N1CCN(c2nc(=O)n(-c3c(C)ccnc3C(C)C)c3nc(-c4c(O)cccc4F)c(F)cc23)C(C)C1 | > 10000 | 7450 | 7830 | > 10000 | 64.6 | 61.7 | 62.9 | 64.5 | 64.7 | 67.1 | 59.7 | 61.3 | 55.9 | 55.3 | 60.8 | 59.9 | 59.2 | 61.7 | 60.3 | 64.2 | IC50 [36]: 1730 nM; viability, T/C [17]: 50.3%; viability, T/C [23]: 46.7%; viability, T/C [29]: 39.2%; viability, T/C [31]: 66.2%; viability, T/C [32]: 61.1%; viability, T/C [33]: 61%; viability, T/C [34]: 58.7%; viability, T/C [35]: 46.2%; viability, T/C [37]: 48.3%; viability, T/C [38]: 50.1%; viability, T/C [39]: 60.3%; viability, T/C [40]: 55.6%; viability, T/C [41]: 45%; viability, T/C [42]: 32%
4 | COC(=O)c1ccc2c(C(=Nc3ccc(N(C)C(=O)CN4CCN(C)CC4)cc3)c3ccccc3)c(O)[nH]c2c1 | – | – | – | – | – | – | – | – | – | – | – | – | – | – | – | – | – | – | – | – | viability, T/C (compound 0.0316 µM): 97.4% [middle of 5 runs]; viability, T/C (compound 0.1 µM): 102% [middle of 5 runs]; viability, T/C (compound 0.316 µM): 101% [middle of 5 runs]; viability, T/C (compound 1 µM): 98% [middle of 5 runs]; viability, T/C (compound 3.16 µM): 98.7% [middle of 5 runs]; IC50 (curve of compound): 7380 nM and > 10000 nM and 7570 nM
5 | CCNC(=O)CC1N=C(c2ccc(Cl)cc2)c2cc(OC)ccc2-n2c(C)nnc21 (stereo unspecified) + C=CC(=O)N1CCN(c2nc(OCC3CCCN3C)nc3c2CCN(c2cccc4cccc(C)c24)C3)CC1CC#N | 101 | 240 | 111 | < 31.6 | 63.1 | 51.1 | 35.6 | 31.9 | 26.3 | 89.5 | 91.3 | 37.3 | 29.7 | 24.7 | 60.4 | 50.6 | 38.5 | 27 | 22.6 | 10.5 | IC50 [1]: 210 nM; viability, T/C [6]: 75.3%; viability, T/C [7]: 59.5%; viability, T/C [8]: 46.3%; viability, T/C [9]: 30.4%; viability, T/C [10]: 26.4%; viability, T/C [11]: 27.2%; viability, T/C [17]: 24.2%; viability, T/C [23]: 24.1%; viability, T/C [29]: 22.5%; viability, T/C [31]: 6.25%; viability, T/C [32]: 3.72%; viability, T/C [33]: 0.16%; viability, T/C [34]: 1.28%; viability, T/C [35]: 0.88%
6 | CC1COCCN1c1cc(-c2ccnn2C)c2ccnc(-c3ccn[nH]3)c2n1 (stereo unspecified) + C=CC(=O)N1CCN(c2nc(=O)n(-c3c(C)ccnc3C(C)C)c3nc(-c4c(O)cccc4F)c(F)cc23)C(C)C1 | 11.6 | < 10 | 11.9 | < 10 | 28 | 18.7 | 13.7 | 13.8 | 11.8 | 28.8 | 18 | 14.4 | 16.1 | 12.6 | 28 | 18.9 | 14.5 | 14.1 | 13.5 | 22.8 | IC50 [36]: < 10 nM; viability, T/C (second compound 0.1 µM, first compound 0.01 µM): 53.6%; viability, T/C (second compound 0.316 µM, first compound 0.01 µM): 44.2%; viability, T/C (second compound 1 µM, first compound 0.01 µM): 54.1%; viability, T/C (second compound 3.16 µM, first compound 0.01 µM): 40.6%; viability, T/C [31]: 15.5%; viability, T/C [32]: 14.1%; viability, T/C [33]: 13.3%; viability, T/C [34]: 12.8%; viability, T/C (second compound 10 µM, first compound 0.01 µM): 20.9%; viability, T/C [37]: 17.4%; viability, T/C [38]: 16.8%; viability, T/C [39]: 13.2%; viability, T/C [40]: 13.4%; viability, T/C [41]: 13.2%
7 | COc1cc2nc(C)nc(NC(C)c3cc(N)cc(C(F)(F)F)c3)c2cc1OC1CCOC1 (stereo unspecified) | – | – | – | – | – | – | – | – | – | – | – | – | – | – | – | – | – | – | – | – | viability, T/C (compound 0.316 µM): 75.7% [middle of 17 runs]; viability, T/C (compound 3.16 µM): 77.2% [middle of 17 runs]; IC50 (compound alone, run of 08/19/2021): > 10000 nM; IC50 (compound alone, run of 08/26/2021): > 10000 nM; IC50 (compound alone, run of 09/02/2021): > 10000 nM
8 | COC(=O)c1ccc2c(C(=Nc3ccc(N(C)C(=O)CN4CCN(C)CC4)cc3)c3ccccc3)c(O)[nH]c2c1 + C=CC(=O)N1CCN(c2nc(OCC3CCCN3C)nc3c2CCN(c2cccc4cccc(C)c24)C3)CC1CC#N | 993 | 388 | 873 | < 31.6 | 66.7 | 68.8 | 65.8 | 49.3 | 28.1 | 63.8 | 67.3 | 49.6 | 38.3 | 20.6 | 64.9 | 62.8 | 58.4 | 49.5 | 23.4 | 26.2 | IC50 [1]: 1640 nM; viability, T/C [6]: 76.7%; viability, T/C [7]: 73.2%; viability, T/C [8]: 69.8%; viability, T/C [9]: 61.8%; viability, T/C [10]: 35.4%; viability, T/C [11]: 19.6%; viability, T/C [17]: 19.7%; viability, T/C [23]: 18.2%; viability, T/C [29]: 16.8%; viability, T/C [31]: 25.4%; viability, T/C [32]: 30%; viability, T/C [33]: 15.6%; viability, T/C [34]: 9.71%; viability, T/C [35]: 5.57%
